Assays:
[1] = tested on: A549-ACE2 infected with SARS-CoV-2; assay: SARS-CoV-2 infection rate relative to DMSO; higher = more infection; conditions: 24 h
[2] = tested on: A549-ACE2 infected with SARS-CoV-2; assay: morphology score (similarity to uninfected cells); higher = more like uninfected cells; conditions: 24 h
Vero E6 [3] = assay: drug sensitivity score (DSS) for viability; higher = more toxic; extreme values may be limits of the assay; conditions: 72 h
Calu-3 [4] = assay: as above; conditions: 72 h
U2OS [5] = assay: as above; conditions: 72 h
HepG2 [6] = assay: as above; conditions: 72 h
Caco-2 [7] = assay: as above; conditions: 72 h
A549-ACE2 [8] = assay: drug-induced phospholipidosis relative to tamoxifen; higher = more phospholipidosis
Vero E6 [9] = assay: relative viability EC50 (midpoint between 100% and the lowest measured viability); higher = less toxic; conditions: 72 h
Calu-3 [10] = assay: as above; conditions: 72 h
U2OS [11] = assay: as above; conditions: 72 h
HepG2 [12] = assay: as above; conditions: 72 h
Caco-2 [13] = assay: as above; conditions: 72 h
[14] = tested on: A549-ACE2 infected with SARS-CoV-2; assay: cell count relative to DMSO; higher = less toxic; conditions: 24 h
Vero E6 [15] = assay: cell viability relative to DMSO; higher = less toxic; conditions: 72 h
Calu-3 [16] = assay: as above; conditions: 72 h
U2OS [17] = assay: as above; conditions: 72 h
HepG2 [18] = assay: as above; conditions: 72 h
Caco-2 [19] = assay: as above; conditions: 72 h
A549-ACE2 [20] = assay: phospholipidosis EC50; higher = less potent phospholipidosis inducer

Cc1cc(Nc2ncc(Cl)c(Nc3ccccc3S(=O)(=O)C(C)C)n2)c(OC(C)C)cc1C1CCNCC1 [ceritinib]
Conditions | SARS-CoV-2 infection rate [%] | cell count [%] | cell viability [%] | morphology score | phospholipidosis EC50 [µM]
A549-ACE2 [20], 24 h | – | – | – | – | 2.94
A549-ACE2 [20], 48 h | – | – | – | – | 1.79
Caco-2 [19], 1 nM | – | – | 99.3 | – | –
Caco-2 [19], 10 nM | – | – | 88.1 | – | –
Caco-2 [19], 100 nM | – | – | 107 | – | –
Caco-2 [19], 1000 nM | – | – | 83.7 | – | –
Caco-2 [19], 10000 nM | – | – | 10.1 | – | –
Calu-3 [16], 1 nM | – | – | 102 | – | –
Calu-3 [16], 10 nM | – | – | 108 | – | –
Calu-3 [16], 100 nM | – | – | 102 | – | –
Calu-3 [16], 1000 nM | – | – | 87.5 | – | –
Calu-3 [16], 10000 nM | – | – | 0.5 | – | –
HepG2 [18], 1 nM | – | – | 94.5 | – | –
HepG2 [18], 10 nM | – | – | 91.3 | – | –
HepG2 [18], 100 nM | – | – | 106 | – | –
HepG2 [18], 1000 nM | – | – | 71.4 | – | –
HepG2 [18], 10000 nM | – | – | 0.2 | – | –
U2OS [17], 1 nM | – | – | 97.7 | – | –
U2OS [17], 10 nM | – | – | 92.8 | – | –
U2OS [17], 100 nM | – | – | 97.3 | – | –
U2OS [17], 1000 nM | – | – | 86.2 | – | –
U2OS [17], 10000 nM | – | – | 5.7 | – | –
Vero E6 [15], 1 nM | – | – | 99.4 | – | –
Vero E6 [15], 10 nM | – | – | 101 | – | –
Vero E6 [15], 100 nM | – | – | 97.9 | – | –
Vero E6 [15], 1000 nM | – | – | 95.9 | – | –
Vero E6 [15], 10000 nM | – | – | 17 | – | –
[1], 0.1 µM | 110 | – | – | – | –
[1], 0.3 µM | 96 | – | – | – | –
[1], 1 µM | 65 | – | – | – | –
[1], 3 µM | 44 | – | – | – | –
[2], 0.1 µM | – | – | – | 0.01 | –
[2], 0.3 µM | – | – | – | 0.04 | –
[2], 1 µM | – | – | – | 0.56 | –
[2], 3 µM | – | – | – | 0.69 | –
[14], 0.1 µM | – | 104 | – | – | –
[14], 0.3 µM | – | 100 | – | – | –
[14], 1 µM | – | 97 | – | – | –
[14], 3 µM | – | 90 | – | – | –

Conditions | drug sensitivity score | relative viability EC50 [µM]
Caco-2 [7] | 7.7 | –
Caco-2 [13] | – | 1.82
Calu-3 [4] | 7.6 | –
Calu-3 [10] | – | 2.15
HepG2 [6] | 9.7 | –
HepG2 [12] | – | 1.44
U2OS [5] | 7.5 | –
U2OS [11] | – | 2.01
Vero E6 [3] | 5.2 | –
Vero E6 [9] | – | 2.78

drug-induced phospholipidosis [%], A549-ACE2 [8]
Conditions | 0.3 µM | 0.833333 µM | 3.33333 µM | 6.66667 µM | 10 µM | 30 µM
24 h | 9.71 | 10.9 | 62 | 78.4 | 87.3 | 66.3
48 h | 12.5 | 7.38 | 84.3 | 87.6 | 93 | 69.7
72 h | 11.3 | 5.24 | 83.1 | – | – | –

CN1CCC[C@@H]1CCO[C@](C)(c1ccccc1)c1ccc(Cl)cc1 [clemastine]
Conditions | SARS-CoV-2 infection rate [%] | cell count [%] | cell viability [%] | morphology score | phospholipidosis EC50 [µM]
A549-ACE2 [20], 24 h | – | – | – | – | 3.92
A549-ACE2 [20], 48 h | – | – | – | – | 4.81
A549-ACE2 [20], 72 h | – | – | – | – | 4.96
Calu-3 [16], 1 nM | – | – | 96.8 | – | –
Calu-3 [16], 10 nM | – | – | 101 | – | –
Calu-3 [16], 100 nM | – | – | 91.8 | – | –
Calu-3 [16], 1000 nM | – | – | 105 | – | –
Calu-3 [16], 10000 nM | – | – | 73.9 | – | –
HepG2 [18], 1 nM | – | – | 108 | – | –
HepG2 [18], 10 nM | – | – | 95.6 | – | –
HepG2 [18], 100 nM | – | – | 104 | – | –
HepG2 [18], 1000 nM | – | – | 96.5 | – | –
HepG2 [18], 10000 nM | – | – | 78.5 | – | –
U2OS [17], 1 nM | – | – | 95.4 | – | –
U2OS [17], 10 nM | – | – | 101 | – | –
U2OS [17], 100 nM | – | – | 96.1 | – | –
U2OS [17], 1000 nM | – | – | 103 | – | –
U2OS [17], 10000 nM | – | – | 96.7 | – | –
Vero E6 [15], 1 nM | – | – | 102 | – | –
Vero E6 [15], 10 nM | – | – | 96.5 | – | –
Vero E6 [15], 100 nM | – | – | 96.8 | – | –
Vero E6 [15], 1000 nM | – | – | 95.6 | – | –
Vero E6 [15], 10000 nM | – | – | 96.3 | – | –
[1], 0.3 µM | 100 | – | – | – | –
[1], 3 µM | 43 | – | – | – | –
[1], 10 µM | 32 | – | – | – | –
[1], 30 µM | 21 | – | – | – | –
[2], 0.3 µM | – | – | – | 0.04 | –
[2], 3 µM | – | – | – | 0.8 | –
[2], 10 µM | – | – | – | 0.86 | –
[2], 30 µM | – | – | – | 0.52 | –
[14], 0.3 µM | – | 99 | – | – | –
[14], 3 µM | – | 120 | – | – | –
[14], 10 µM | – | 123 | – | – | –
[14], 30 µM | – | 104 | – | – | –

Conditions | drug sensitivity score | relative viability EC50 [µM]
Caco-2 [7] | 0 | –
Caco-2 [13] | – | > 10
Calu-3 [4] | 0.8 | –
HepG2 [6] | 1.2 | –
HepG2 [12] | – | > 10
U2OS [5] | 0 | –
U2OS [11] | – | > 10
Vero E6 [3] | 0 | –
Vero E6 [9] | – | > 10

drug-induced phospholipidosis [%], A549-ACE2 [8]
Conditions | 0.3 µM | 0.833333 µM | 3.33333 µM | 6.66667 µM | 10 µM | 30 µM
24 h | 0.63 | 8.33 | 38.5 | 87.2 | 102 | 98.4
48 h | 1.7 | 9.62 | 25.8 | 80.6 | 96.8 | –
72 h | 4.55 | 9.81 | 21.5 | 79.5 | 95.6 | –

— the supplement of paper PMC13380429
